Test results as given in PMC8315922, “In Vitro Identification and In Vivo Confirmation of Inhibitors for Sweet Potato Chlorotic Stunt Virus RNA Silencing Suppressor, a Viral RNase III” (Journal of Virology, 2021).
Where two headings read alike, the source gives them in different places.

Tests used:
[1] = biological target: CSR3 (RNase III of SPCSV) (Sweet potato chlorotic stunt virus, UniProt Q8JJW8); assay: Kinetic-based FRET dose-response assay (IC50, DSS); type: biochemical; parameters: DSS / DSS Comm 1 / DSS FIMM1 / DSS FIMM 2: scale not given here; details: for DSS Comm 1 / DSS FIMM1 / DSS FIMM 2: drug sensitivity score; for DSS Comm 1: repeat Comm 1; for DSS FIMM1: repeat FIMM 1; for DSS FIMM 2: repeat FIMM 2
Method: A dose-response assay with six concentrations (1.25 nM to 50 μM) was carried out in three independent experiments, which included two tests with the 112 selected FIMM compounds (i.e., compounds prepared by the HTB-FIMM) and one test using the newly ordered commercial compounds (99 of the 112 compounds, i.e., compounds prepared by a second supplier). A dose-response curve was generated for each compound based on PI values as a function of the concentration.
The HTS assay was designed based on FRET using a 22-bp siRNA (forward sequence, […]; reverse sequence, […]) with a 2-nucleotide (nt) 3′ overhang labeled with the fluorescent dye 6-carboxyfluorescein (FAM) and a black hole quencher (BHQ1) on the sense strand (Metabion, Munich, Germany). Screening was initially carried out at one concentration (10 μM) in a 20-μl reaction buffer. […] All reaction mixtures contained 50 nM CSR3 and 375 nM labeled siRNA in 384-well black flat-bottom microplates (Corning, NY, USA) and were prepared using a BioTek MultiFlo FX dispenser with single-channel random access dispenser cassettes (BioTek, Winooski, VT, USA). The plates were read with a PHERAstar FS reader (BMG Labtech, Ortenberg, Germany).
(§1) For HTS, the activity of CSR3 was calculated by measuring the change in fluorescence as a function of the reaction time using MARS Data Analysis software (BMG Labtech). To evaluate the CSR3 inhibition efficiency of individual compounds, the PI of each compound was calculated using the slope values for the sample, positive control, and negative control according to the following equation: PI = 100 × [1 − (sample − positive)/(negative − positive)]%. IC50 and DSS values were calculated using concentration-specific PI values according to a previous study ([31]). Relative gene expression was calculated using the classical 2^−ΔΔ^CT method ([63]).

[2] = biological target: T1, CSR3 (Sweet potato chlorotic stunt virus, UniProt Q8JJW8); assay: Binding affinity assay using MST; details: for Comments: MST behaviour of compound (V-shape response, fluorescence quenching, interference, aggregator); for Kd: MST binding affinity to CSR3; for Kd / Binding (Yes/No) / Response Amplitude: Table S4; for Binding (Yes/No): MST binding call; for Response Amplitude: MST response amplitude
T1 sequence (Q8JJW8 1-228): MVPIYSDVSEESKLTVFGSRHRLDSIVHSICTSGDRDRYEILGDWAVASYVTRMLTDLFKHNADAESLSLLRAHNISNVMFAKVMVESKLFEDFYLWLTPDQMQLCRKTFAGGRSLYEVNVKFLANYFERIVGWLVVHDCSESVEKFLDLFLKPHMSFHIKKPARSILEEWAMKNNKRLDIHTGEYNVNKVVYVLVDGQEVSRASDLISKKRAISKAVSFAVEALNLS
Method: (§2) Binding affinity assays were first carried out with the 99 commercial compounds using the MST method.
The labeled-protein solution containing 500 nM proteins and 40 nM dye was prepared in PBS buffer with 2% dimethyl sulfoxide (DMSO) for the assay. The 12 concentrations for each compound were obtained by 2-fold serial dilutions (0.2 μM to 400 μM). […] Two independent experiments were carried out in premium coated capillaries (NanoTemper, Munich, Germany) using a Monolith NT.Automated instrument (NanoTemper) with the power set at high (80%), the light-emitting diode (LED) power (pico red) set at 5%, and the on-time set at 20 s. The dissociation constant (Kd) was determined using the MO.Affinity Analysis program (NanoTemper).

[3] = tested on: SPFMV; assay: Virus accumulation (RT-qPCR of coat protein RNA) in coinfected sweetpotato plants grown in culture medium: SPFMV; type: in vivo, Sweet potato feathery mottle virus; details: for SPFMV accumulation reduced / viral titer SPFMV (log2 fold change relative to controls): plants in culture medium, 50 μM; for SPFMV_FC (fold change of viral accumulation): 50 μM in culture medium, 28 days, relative to DMSO control
Method: (§3) Since tests in culture medium consume smaller amounts of compounds and can be carried out under relatively controlled conditions, sweetpotato plants coinfected with SPCSV and SPFMV were grown in medium supplemented with one of the 30 inhibitor candidates at a concentration of 50 μM. Their effects on plant growth were monitored by imaging the plants once a week. […] In addition, virus accumulation was quantified by measuring the relative abundance of the transcripts encoding viral coat proteins using RT-qPCR ([32]). The effect of individual compounds on virus accumulation was estimated by comparing treated and control plants.
(§4) Sweetpotato plants cultivar 'Huachano' (accession CIP420065) were side-graft inoculated with both SPFMV (East African strain isolate Nam1) and SPCSV-Ug (East African serotype 2) as described previously ([62]). Plantlets were propagated by taking single-node stems grown in a plant culture medium ([33]). Next, plantlets with newly formed roots were transferred to glass tubes (18 by 150 mm) containing 10 ml of medium supplemented with either 50 μM compound (diluted in DMSO; final DMSO concentration, 0.1%) or only 0.1% DMSO as a control. For plant experiments in soil, plantlets were transferred to pots (6 by 6 by 10 cm) filled with a mixture of sand, humus, and washed soil. After 1 week, plants were treated by foliar spraying using either individual compounds at a single concentration (10 μM) (treatment) or water (control/mock) twice a week for 1 month. All plants were grown at 22°C with 60% humidity and a 16-h light/8-h dark photoperiod for 28 days in culture medium and for 41 days in soil. The Finnish National Plant Phenotyping Infrastructure (NaPPI) was used to monitor plant viral disease symptoms as described in our previous study ([33]). Four compounds were tested with the phenotyping platform in two independent batches, each of which included five biological replicates.
(§5) Leaf samples were collected from plants grown in culture medium or soil for 28 or 41 days, respectively, and frozen in liquid nitrogen. Total RNA was extracted using the Spectrum plant total RNA kit (Sigma-Aldrich). First-strand cDNA was synthesized using the Transcriptor first-strand cDNA synthesis kit (Roche, Basel, Switzerland). […] All RT-qPCR experiments were conducted in triplicate on three and five biological replicates from plants grown in culture medium and soil, respectively. The primer list can be found in our previous study ([33]).
as §1

[4] = tested on: SPCSV; assay: Virus accumulation (RT-qPCR of coat protein RNA) in coinfected sweetpotato plants grown in culture medium: SPCSV; type: in vivo, Sweet potato chlorotic stunt virus; details: for SPCSV accumulation reduced / viral titer SPCSV (log2 fold change relative to controls): plants in culture medium, 50 μM; for SPCSV_FC (fold change of viral accumulation): 50 μM in culture medium, 28 days, relative to DMSO control
Method: as §3, §4, §5, §1

[5] = tested on: SPCSV; details: plants in soil, 10 μM foliar spray twice a week for 1 month, vs water-treated
Method: (§6) Compounds were administered by regular foliar spray over 1 month.
as §4
(§7) Leaf samples were collected from plants grown in culture medium or soil for 28 or 41 days, respectively, and frozen in liquid nitrogen. Total RNA was extracted using the Spectrum plant total RNA kit (Sigma-Aldrich). First-strand cDNA was synthesized using the Transcriptor first-strand cDNA synthesis kit (Roche, Basel, Switzerland). Gene expression was measured in a final volume of 10 μl (containing 2 μl 10-fold-diluted cDNA, 5 μl SYBR green I master mix [Roche], and 2.5 μM primers) using the LightCycler 480 instrument II (Roche). All RT-qPCR experiments were conducted in triplicate on three and five biological replicates from plants grown in culture medium and soil, respectively. The primer list can be found in our previous study ([33]).
as §1

[6] = tested on: SPFMV; details: plants in soil, 10 μM foliar spray twice a week for 1 month, vs water-treated
Method: as §6, §4, §7, §1

[7] = tested on: sweetpotato plants; details: 50 μM in culture medium
[8] = tested on: human enzymes or bacterial proteins; parameters: method as in earlier work; details: ref PubChem https://pubchem.ncbi.nlm.nih.gov/compound/7114450#section=Biological-Test-Results; cited from earlier work
[9] = biological target: T1, CSR3; assay: Binding affinity assay using SPR; details: SPR dose-response 3 μM to 200 μM, 25°C, numbers match M (cf. Fig 5A)
Method: as §2
CSR3 was purified as described above and stored in PBS buffer. SPR was performed on a BiacoreT100 instrument (GE Healthcare) using a sensor S CM5 chip (GE Healthcare). CSR3 (10 ng/μl) was immobilized using the standard amine-coupling method according to the manufacturer’s instructions with immobilization buffer (10 mM sodium acetate [pH 4]); the final response unit (RU) value was 11,459. Compounds at a single concentration (100 μM) or consisting of 2-fold serial dilutions (3 μM to 200 μM) were flowed over the sensor surface using PBS buffer with 0.01 M HEPES, 0.05% surfactant P20, and 2% DMSO. […] To eliminate bulk interference by DMSO, a solvent correction consisting of DMSO at concentrations ranging from 1.5% to 2.8% was carried out for every 30 samples. Steady-state affinity (KD) values were determined using BiacoreT100 Evaluation software, v.2.04 (GE Healthcare).

[10] = kinetic-based HTS, Fig 5A summary
[11] = read-out: IC50 Comm 1, repeat Comm 1 (commercial compounds), 1.25 nM to 50 μM, unit inferred, numbers match nM
[12] = repeat FIMM 2 (FIMM library compounds), 1.25 nM to 50 μM, unit inferred, numbers match nM, read-out: IC50 FIMM 2
[13] = read-out: IC50 FIMM1, repeat FIMM 1 (FIMM library compounds), 1.25 nM to 50 μM, unit inferred, numbers match nM (cf. Fig 5A)
[14] = read-out: IC50 FIMM 2, repeat FIMM 2 (FIMM library compounds), 1.25 nM to 50 μM, unit inferred, numbers match nM
[15] = repeat Comm 1 (commercial compounds), 1.25 nM to 50 μM, unit inferred, numbers match nM, read-out: IC50 Comm 1
[16] = repeat FIMM 1 (FIMM library compounds), 1.25 nM to 50 μM, unit inferred, numbers match nM (cf. Fig 5A), read-out: IC50 FIMM1

Compound	DSS Comm 1 [1]	DSS FIMM1 [1]	DSS FIMM 2 [1]	DSS [1, 10]	IC50 [1, 10]	IC50 [1, 11]	IC50 [1, 12]	Binding (Yes/No) [2]	Response Amplitude [2]	SPFMV accumulation reduced [3]	SPCSV accumulation reduced [4]	SPFMV_FC (fold change of viral accumulation) [3]	SPCSV_FC (fold change of viral accumulation) [4]	Toxicity [7]	IC50 [1, 15]	further results
CN1CCc2cccc3c2[C@H]1Cc1ccc(O)c(O)c1-3 [FIMM000096, reference compound]	12.7	12.7	12.8	12.7	~2950 nM	2950 nM	2880 nM	Yes	11808	~2 fold	~4 fold	–	–	–	–	Comments [2]: Fluorescence quenching; Kd [2]: 0.69 µM
O=C(O)c1ccc2c(c1)C1C=CCC1C(c1ccccc1)N2 (centres unmarked) [FIMM005536]	12.4	12.5	12.1	12.5	~2740 nM	2880 nM	–	No	0	~4 fold	approximately 8 fold	0.2931	0.1274	no	–	IC50 [1, 13]: 2750 nM; IC50 [1, 14]: 2930 nM; viral titer SPFMV (log2 fold change relative to controls) [3]: −1.77; viral titer SPCSV (log2 fold change relative to controls) [4]: −2.97; log2 fold change in coat protein expression of SPCSV [5]: −1.67; log2 fold change in coat protein expression of SPFMV [6]: −1.36; activity in inhibitor screens for human enzymes or bacterial proteins [8]: inactive
O=C(O)c1ccc2c(c1)C1C=CCC1C(c1ccc(F)cc1)N2 (centres unmarked) [FIMM051696]	11.1	12.4	10.8	12.4	~2820 nM	3610 nM	–	No	0.517	~4 fold	~4 fold	0.3032	0.2923	no	–	IC50 [1, 13]: 2820 nM; IC50 [1, 14]: 4000 nM; Kd ([9]; unit inferred, read-out: Steady State Affinity): 3.65 µM; viral titer SPFMV (log2 fold change relative to controls) [3]: −1.72; viral titer SPCSV (log2 fold change relative to controls) [4]: −1.77; activity in inhibitor screens for human enzymes or bacterial proteins [8]: inactive
CN1C(=O)C(=CNc2ccc(F)cc2)C(=O)N(C)C1=O [FIMM059523]	–	0	2.3	–	–	–	21000 nM	–	–	–	–	–	–	–	–	–
O=S(=O)(O)c1cccc2cc(O)ccc12 [FIMM072577]	20.7	18.3	22.1	–	–	–	295 nM	No	0	–	–	1.005	0.7975	no	391 nM	IC50 [1, 16]: 699 nM; Comments [2]: Interference; Steady State Affinity ([9]; unit not given): non binder
CCn1c(S)nnc1CCNC(=O)c1cccs1 [FIMM099662]	6	11.7	10.2	–	–	–	3810 nM	Yes	21	–	–	0.9387	0.5483	no	11400 nM	IC50 [1, 16]: 3070 nM; Kd ([2]; read-out: Kd): 1.78 µM
CC(C)(C)C1CCc2c(sc(NC(=O)C3CC=CCC3C(=O)O)c2C(N)=O)C1 (centres unmarked) [FIMM104970]	2.4	0	2.1	–	–	–	–	No	2.23	–	–	–	–	–	3620 nM	–
